Molecular target: LMPTP-A (Low Molecular Weight Protein Tyrosine Phosphatase-A) enzyme (Homo sapiens (Human), UniProt P24666)
Experiment: LMPTP primary screening / LMPTP (OMFP) enzyme inhibition assay, fluorescence intensity
Type: biochemical
Settings: for IC50: LMPTP-A, OMFP substrate, method of Example 2, read-out: IC50
In short: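 0.625 nM LMPTP-A with 400 μM OMFP substrate in 50 mM Bis-Tris pH 6.0, 1 mM DTT, 0.01% Triton X-100, […]. Compounds at 20 μM final. Incubated 50 min at room temperature in the dark; fluorescence intensity read.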

Chain of LMPTP-A (Low Molecular Weight Protein Tyrosine Phosphatase-A) enzyme (P24666 whole entry): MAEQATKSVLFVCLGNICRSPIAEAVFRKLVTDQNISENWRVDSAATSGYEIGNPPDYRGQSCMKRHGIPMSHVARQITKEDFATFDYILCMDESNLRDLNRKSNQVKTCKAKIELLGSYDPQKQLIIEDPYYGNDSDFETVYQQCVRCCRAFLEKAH

Compound | IC50 [nM] | LMPTP (OMFP) potency in words (SAR discussion)
c1ccc2c(NCCCN3CCCCC3)cc(-c3ccc4sccc4c3)nc2c1 [Compound I247] | 200 to 800 | 
FC(F)(F)Oc1ccccc1-c1cc(NCCCC2CCCNC2)c2ccccc2n1 (centres unmarked) [Compound I166, (3-piperidylpropyl){2-[2-(trifluoromethoxy)phenyl](4-quinolyl)}amine] | 200 to 800 | 
Cc1nc(C)c(-c2cc(N(C)C)c3ccccc3n2)s1 [Compound G21, [2-(2,4-Dimethyl-thiazol-5-yl)-quinolin-4-yl]-dimethyl-amine] | > 5000 | 
COc1ccc(-c2cc(NCCCN3CCCCC3)c3cc(OC(F)(F)F)ccc3n2)cc1 [Compound G31, [2-(4-Methoxy-phenyl)-6-trifluoromethoxy-quinolin-4-yl]-(3-piperidin-1-yl-propyl)-amine] | > 5000 | 
{2-[5-chloro-2-(cyclopropylmethoxy)(3-pyridyl)](4-quinolyl)}(3-piperidylpropyl)amine [Compound I95] | 801 to 5000 | 
(3-piperidylpropyl)(2-(3-pyridyl)(4-quinolyl))amine [Compound I147] | 801 to 5000 | 
COc1ccc(-c2cc(Nc3ccc(Cl)cc3)c3ccccc3n2)cc1 [Compound G40, (4-chlorophenyl)[2-(4-methoxyphenyl)(4-quinolyl)]amine] | 801 to 5000 | 
COc1ccc(-c2cc(Nc3cccc(CC4CCN(C)CC4)c3)c3ccccc3n2)cc1 [Compound I31, [2-(4-methoxyphenyl)(4-quinolyl)]{3-[(1-methyl(4-piperidyl))methyl]phenyl}amine] | 200 to 800 | 
CCN(C)C(=O)c1ccc(-c2cc(NCCCN3CCCCC3)c3ccccc3n2)cc1 [Compound I266] | 801 to 5000 | 
Fc1ccc(-c2cc(NCCCN3CCCCC3)c3ccccc3n2)c(F)c1F [Compound I115] | 801 to 5000 | 
[2-(5-bromo-3-chloro-2-fluorophenyl)(4-quinolyl)](3-piperidylpropyl)amine [Compound I239] | 801 to 5000 | 
CC(C)CNC(=O)c1ccc(-c2cc(NCCCN3CCCCC3)c3ccccc3n2)cc1 [Compound I226] | 801 to 5000 | 
O=C(O)CCC(=O)Nc1ccc(-c2cc(NCCCN3CCCCC3)c3ccccc3n2)cc1 [Compound I58] | 801 to 5000 | 
c1ccc2c(NCCCN3CCCCC3)cc(-c3ccc4scnc4c3)nc2c1 [Compound I224] | 801 to 5000 | 
CCN1CCN(Cc2ccc(Nc3cc(-c4ccc(C(N)=O)cc4)nc4ccccc34)cc2)CC1 [Compound I215, 4-[4-({4-[(4-ethylpiperazinyl)methyl]phenyl}amino)-2-quinolyl]benzamide] | > 5000 | 
COc1ccc(-c2cc(NCCCc3ccncc3)c3ccccc3n2)cc1 [Compound I200, [2-(4-methoxyphenyl)(4-quinolyl)](3-(4-pyridyl)propyl)amine] | 801 to 5000 | 
COc1ccc(-c2cc(Nc3ccccc3C(F)(F)F)c3ccccc3n2)cc1 [Compound G36, [2-(4-Methoxy-phenyl)-quinolin-4-yl]-(2-trifluoromethyl-phenyl)-amine] | > 5000 | 
COc1ccc(-c2cc(Nc3cccc(CN(C)C)c3)c3ccccc3n2)cc1 [Compound I39, [(3-{[2-(4-methoxyphenyl)(4-quinolyl)]amino}phenyl)methyl]dimethylamine] | 801 to 5000 | 
c1c[nH]c(-c2cc(NCCCN3CCCCC3)c3ccccc3n2)c1 [Compound G22, (3-Piperidin-1-yl-propyl)-[2-(1H-pyrrol-2-yl)-quinolin-4-yl]-amine] | 801 to 5000 | 
COc1ccc(-c2cc(Nc3cccc(CN4CCCC4)c3)c3c(n2)CCCC3)cc1 [Compound I209, [2-(4-methoxyphenyl)(4-5,6,7,8-tetrahydroquinolyl)][3-(pyrrolidinylmethyl)phenyl]amine] | 801 to 5000 | 
CSCCCN1CCCCC1 [Entry 64] |  | inactive

Compound | IC50 [nM] | LMPTP (OMFP) potency in words (SAR discussion)
Cc1cc(-c2cc(NCCCN3CCCCC3)c3ccccc3n2)cnc1C#N [Compound I83] | 801 to 5000 | 
N#Cc1cccc(Nc2cc(-c3ccccc3C(F)(F)F)nc3ccccc23)c1 [Compound G32, 3-[2-(2-Trifluoromethyl-phenyl)-quinolin-4-ylamino]-benzonitrile] | 801 to 5000 | 
O=C(Nc1ccc(-c2cc(NCCCN3CCCCC3)c3ccccc3n2)cc1)c1ccccc1 [Compound I57] | 200 to 800 | 
CN(C)C(=O)c1ccc(-c2cc(NCCCN3CCCCC3)c3ccccc3n2)cc1 [Compound I72] | 801 to 5000 | 
COc1ccc(CNc2cc(-c3ccc(OC)cc3)nc3ccccc23)cc1 [Compound G79, [2-(4-methoxyphenyl)(4-quinolyl)][(4-methoxyphenyl)methyl]amine] | 801 to 5000 | 
c1ccc2c(NCCCN3CCCCC3)cc(-c3ccc4ccsc4c3)nc2c1 [Compound I78] | 200 to 800 | 
N#Cc1ccccc1-c1cc(Nc2cccc(CN3CCCC3)c2)c2ccccc2n1 [Compound I2, 2-(4-{[3-(pyrrolidinylmethyl)phenyl]amino}-2-quinolyl)benzenecarbonitrile] | 801 to 5000 | 
c1ccc2c(NCCCN3CCCCC3)cc(-c3ccoc3)nc2c1 [Compound G14, (2-Furan-3-yl-quinolin-4-yl)-(3-piperidin-1-yl-propyl)-amine] | 801 to 5000 | 
COc1ccc(-c2cc(NCCCN3CCCCC3)c3c(n2)CCCC3)cc1 [Compound I208] | 801 to 5000 | 
Clc1ccc(-c2cc(NCCCN3CCCCC3)c3ccccc3n2)s1 [Compound I142] | 801 to 5000 | 
FC(F)(F)c1ccccc1-c1cc(Nc2ccccc2)c2ccccc2n1 [Compound G33, Phenyl-[2-(2-trifluoromethyl-phenyl)-quinolin-4-yl]-amine] | > 5000 | 
COc1ccc(-c2cc(Nc3ccc(CC4CCN(C(C)=O)CC4)cc3)c3ccccc3n2)cc1 [Compound I34, 1-acetyl-4-[(4-{[2-(4-methoxyphenyl)(4-quinolyl)]amino}phenyl)methyl]piperidine] | 801 to 5000 | 
COc1ccc(-c2cc(NCCc3ccc(Cl)cc3)c3ccccc3n2)cc1 [Compound G84, [2-(4-chlorophenyl)ethyl][2-(4-methoxyphenyl)(4-quinolyl)]amine] | 801 to 5000 | 
(3-piperidylpropyl)[2-(3,4,5-trifluorophenyl)(4-quinolyl)]amine [Compound I127] | 801 to 5000 | 
CN(C)Cc1ccc(Nc2cc(-c3ccc(C(F)(F)F)cc3C(F)(F)F)nc3ccccc23)cc1 [Compound I54, {[4-({2-[2,4-bis(trifluoromethyl)phenyl](4-quinolyl)}amino)phenyl]methyl}dimethylamine] | > 5000 | 
O=C(c1ccc(-c2cc(NCCCN3CCCCC3)c3ccccc3n2)cc1)N1CCOCC1 [Compound I234] | 200 to 800 | 
CCOC(=O)CNC(=O)c1ccc(-c2cc(NCCCN3CCCCC3)c3ccccc3n2)cc1 [Compound I65] | 200 to 800 | 
COc1cccc(F)c1-c1cc(NCCCN2CCCCC2)c2ccccc2n1 [Compound I164] | 801 to 5000 | 
CCN1CCN(Cc2ccc(CNc3cc(-c4ccc(C(N)=O)cc4)nc4ccccc34)cc2)CC1 [Compound I214, 4-{4-[({4-[(4-ethylpiperazinyl)methyl]phenyl}methyl)amino]-2-quinolyl}benzamide] | > 5000 | 
COc1ccc(-c2cc(Nc3cccc(CN4CCCN(C)CC4)c3)c3ccccc3n2)cc1 [Compound G57, [2-(4-methoxyphenyl)(4-quinolyl)]{3-[(4-methyl(1,4-diazaperhydroepinyl))methyl]phenyl}amine] | 200 to 800 | 
